From patent US20260250251A1, “HETEROCYCLIC COMPOUNDS AS PI3Ka INHIBITORS” (Pikavation Therapeutics, Inc., priority 2022, published 2026) come the findings set out here.

The subject of test [1] is T47D (PIK3CA H1047R) cells, pSer473 AKT. In words: pS473 AKT assay in T47D cells. The following applies: Homo sapiens, treated 2 h, read-out: T47D_IC50. The class given is cell-based. Here is the method:
(§1) SKBR3 (PIK3CA WT), MCF7 (PIK3CA E545K), and T47D (PIK3CA H1047R) cells were cultured using 10-cm petri dishes with recommended medium. One day before the assay, cells were seeded in 96-well plates. After overnight incubation, cells were treated with different concentrations of PI3Kα inhibitors for 2 h. Cells were then fixed using 4% paraformaldehyde at room temperature for 20 min. Cells were aspirated with 4% paraformaldehyde, and washed using 1× regular phosphate buffered saline 3 times, 5 min each. Any residual phosphate buffered saline was aspirated and cells were blocked using 10% goat serum containing 1% bovine serum albumin and 0.3% Triton X-100 at room temperature for 1 h. Without any additional washing, primary antibodies (rabbit anti-pSer473 AKT) were diluted using blocking buffer and added at a final volume of 50 microliter per well. Assay plates with primary antibodies were maintained overnight at 4° C. Cells were washed using 1× regular phosphate buffered saline 3 times, 5 min each. After the final wash, cells were incubated with horseradish peroxidase-conjugated secondary antibodies (goat Anti-rabbit IgG) and diluted using the same blocking buffer at room temperature for 1 h. Cells were then washed thoroughly using 1× regular phosphate buffered saline 3 times, 5 min each, and any residual phosphate buffered saline was aspirated. Super-Signal ELISA Pico Chemiluminescent Substrate was then added at a final volume of 100 microliter per well. Plates were read on a i3x Multi-Mode Microplate Reader and IC50 values calculated using GraphPad Prism software.
(§2) Results of the assay described above are presented in Table A. “++++” indicates an IC50 less than 1000 nM; “+++” indicates an IC50 greater than or equal to 1000 nM but less than 5000 nM; “++” indicates an IC50 greater than or equal to 5000 nM but less than 10000 nM; and “+” indicates an IC50 greater than or equal to 10000 nM.

The subject of test [2] is SKBR3 (PIK3CA WT) cells, pSer473 AKT. In words: pS473 AKT assay in SKBR3 cells. The note with it: Homo sapiens, SK-BR-3, treated 2 h, read-out: SKBR3_IC50. In kind it is cell-based. Here is the method: as §1, §2

As to `Nc1nn(CCN2CCC2)c2c(Cl)cc(NC(=O)c3cc(F)cc(C(F)(F)F)c3)c(Oc3cc(F)ccc3Cl)c12` [Example 56, N-(3-Amino-1-(2-(azetidin-1-yl)ethyl)-7-chloro-4-(2-chloro-5-fluorophenoxy)-1H-indazol-5-yl)-3-fluoro-5-(trifluoromethyl)benzamide], the IC50 in test [1] was under 1000 nM; in test [2] it was 1000 to 5000 nM.

With `Nc1nn2c3c(cc(NC(=O)c4cc(F)cc(C(F)(F)F)c4)c(Oc4cc(F)ccc4Cl)c13)NC(=O)C2` [Example 32, N-(6-Amino-7-(2-chloro-5-fluorophenoxy)-2-oxo-2,3-dihydro-1H-pyrazolo[1,5,4-de]quinoxalin-8-yl)-3-fluoro-5-(trifluoromethyl)benzamide], the IC50 in test [1] and in test [2] was under 1000 nM throughout.

Turning to `Cn1nc(N)c2c(Oc3cc(F)ccc3Cl)c(NC(=O)c3csc4ccccc34)cc(Cl)c21` [Example 63, N-(3-Amino-7-chloro-4-(2-chloro-5-fluorophenoxy)-1-methyl-1H-indazol-5-yl)benzo[b]thiophene-3-carboxamide], the results for the IC50 in test [1] and in test [2] were under 1000 nM and 1000 to 5000 nM, respectively.

On to `Cn1nc(N)c2c(Oc3cc(F)ccc3Cl)c(NC(=O)c3cc(F)cc(C(F)(F)F)c3)cc(CCO)c21` [Example 66, N-(3-Amino-4-(2-chloro-5-fluorophenoxy)-7-(2-hydroxyethyl)-1-methyl-1H-indazol-5-yl)-3-fluoro-5-(trifluoromethyl)benzamide], for which the IC50 in test [1] and in test [2] was under 1000 nM each time.

Take `Nc1nn2c(=O)c3c(c4cc(NC(=O)c5cc(F)cc(C(F)(F)F)c5)c(Oc5cc(F)ccc5Cl)c1c42)CCC3` [Example 74, N-(4-Amino-3-(2-chloro-5-fluorophenoxy)-7-oxo-7,8,9,10-tetrahydrocyclopenta[c]pyrazolo[4,5,1-ij]quinolin-2-yl)-3-fluoro-5-(trifluoromethyl)benzamide]: the IC50 in test [1] and in test [2] was under 1000 nM each time.

For the compound `CCn1nc(N)c2c(Oc3cc(F)ccc3Cl)c(NC(=O)c3cc(F)cc(C(F)(F)F)c3)ccc21` [Example 8, N-(3-Amino-4-(2-chloro-5-fluorophenoxy)-1-ethyl-1H-indazol-5-yl)-3-fluoro-5-(trifluoromethyl)benzamide], the IC50 in test [1] and in test [2] was under 1000 nM each time.

Regarding `CN(C)c1nn(C)c2c(Cl)cc(NC(=O)c3cc(F)cc(C(F)(F)F)c3)c(Oc3cc(F)ccc3Cl)c12` [Example 54, N-(7-chloro-4-(2-chloro-5-fluorophenoxy)-3-(dimethylamino)-1-methyl-1H-indazol-5-yl)-3-fluoro-5-(trifluoromethyl)benzamide], the IC50 in test [1] and in test [2] was at least 10000 nM each time.

On to `Cn1nc(N)c2c(Oc3cc(F)ccc3Cl)c(NC(=O)c3cc(F)cc(C(F)(F)F)c3)cc(C#CC3(CO)CC3)c21` [Example 44, N-(3-Amino-4-(2-chloro-5-fluorophenoxy)-7-((1-(hydroxymethyl)cyclopropyl)ethynyl)-1-methyl-1H-indazol-5-yl)-3-fluoro-5-(trifluoromethyl)benzamide], for which the IC50 in test [1] and in test [2] was under 1000 nM each time.

For the compound `Nc1nn2c(=O)c3ccccc3c3cc(NC(=O)c4cc(F)cc(C(F)(F)F)c4)c(Oc4cc(F)ccc4Cl)c1c32` [Example 73, N-(4-Amino-3-(2-chloro-5-fluorophenoxy)-7-oxo-7H-pyrazolo[4,5,1-de]phenanthridin-2-yl)-3-fluoro-5-(trifluoromethyl)benzamide], the IC50 in test [1] and in test [2] was under 1000 nM each time.

Consider `Cn1nc(N)c2c(Oc3cc(F)ccc3Cl)c(NC(=O)c3cc(F)cc(C(F)(F)F)c3)cc(C#CC3CCOCC3)c21` [Example 38, N-(3-Amino-4-(2-chloro-5-fluorophenoxy)-1-methyl-7-((tetrahydro-2H-pyran-4-yl)ethynyl)-1H-indazol-5-yl)-3-fluoro-5-(trifluoromethyl)benzamide], for which the IC50 is under 1000 nM in test [1] and 1000 to 5000 nM in test [2].

Take `Nc1nn2c3c(cc(NC(=O)c4cc(F)cc(C(F)(F)F)c4)c(Oc4cc(F)ccc4Cl)c13)CNC(=O)C2` [Example 36, N-(2-Amino-3-(2-chloro-5-fluorophenoxy)-8-oxo-6,7,8,9-tetrahydro-[1,4]diazepino[6,7,1-hi]indazol-4-yl)-3-fluoro-5-(trifluoromethyl)benzamide]: the IC50 in test [1] and in test [2] was under 1000 nM throughout.

With `CC(C)n1cc(-c2cc(NC(=O)c3cc(F)cc(C(F)(F)F)c3)c(Oc3cc(F)ccc3Cl)c3c(N)nn(C)c23)cn1` [Example 26, N-(3-Amino-4-(2-chloro-5-fluorophenoxy)-7-(1-isopropyl-1H-pyrazol-4-yl)-1-methyl-1H-indazol-5-yl)-3-fluoro-5-(trifluoromethyl)benzamide], the IC50 in test [1] is under 1000 nM; in test [2], 1000 to 5000 nM.

In the case of `Nc1nn2c3c(cc(NC(=O)c4cc(F)cc(C(F)(F)F)c4)c(Oc4cc(F)ccc4Cl)c13)CCC2` [Example 22, N-(2-amino-3-(2-chloro-5-fluorophenoxy)-7,8-dihydro-6H-pyrazolo[4,5,1-ij]quinolin-4-yl)-3-fluoro-5-(trifluoromethyl)benzamide], the IC50 in test [1] and in test [2] was under 1000 nM each time.

Consider `CNC(=O)N1CCCCC1C#Cc1cc(NC(=O)c2cc(F)cc(C(F)(F)F)c2)c(Oc2cc(F)ccc2Cl)c2c(N)nn(C)c12` (centres unmarked) [Example 80, 2-((3-Amino-4-(2-chloro-5-fluorophenoxy)-5-(3-fluoro-5-(trifluoromethyl)benzamido)-1-methyl-1H-indazol-7-yl)ethynyl)-N-methylpiperidine-1-carboxamide], for which the IC50 is under 1000 nM in test [1] and 1000 to 5000 nM in test [2].

For `Cn1nc(N)c2c(Oc3cc(F)ccc3Cl)c(NC(=O)c3cc(F)cc(C(F)(F)F)c3)cc(/C=C/c3ccccn3)c21` [Example 76, (E)-N-(3-Amino-4-(2-chloro-5-fluorophenoxy)-1-methyl-7-(2-(pyridin-2-yl)vinyl)-1H-indazol-5-yl)-3-fluoro-5-(trifluoromethyl)benzamide], the results for the IC50 in test [1] and in test [2] were under 1000 nM and 5000 to 10000 nM, respectively.

In the case of `Nc1nn2c3c(cc(NC(=O)c4cc(F)cc(C(F)(F)F)c4)c(Oc4cc(F)ccc4Cl)c13)CNC2=O` [Example 68, N-(2-Amino-3-(2-chloro-5-fluorophenoxy)-8-oxo-7,8-dihydro-6H-pyrazolo[4,5,1-ij]quinazolin-4-yl)-3-fluoro-5-(trifluoromethyl)benzamide], the IC50 in test [1] and in test [2] was under 1000 nM throughout.

As to `CN1CCC(C#Cc2cc(NC(=O)c3cc(F)cc(C(F)(F)F)c3)c(Oc3cc(F)ccc3Cl)c3c(N)nn(C)c23)CC1` [Example 51, N-(3-Amino-4-(2-chloro-5-fluorophenoxy)-1-methyl-7-((1-methylpiperidin-4-yl)ethynyl)-1H-indazol-5-yl)-3-fluoro-5-(trifluoromethyl)benzamide], the IC50 in test [1] was under 1000 nM; in test [2], at least 10000 nM.

With `Cn1nc(N)c2c(Oc3cc(F)ccc3Cl)c(NC(=O)c3cc(F)cc(C(F)(F)F)c3)cc(CC#N)c21` [Example 31, N-(3-Amino-4-(2-chloro-5-fluorophenoxy)-7-(cyanomethyl)-1-methyl-1H-indazol-5-yl)-3-fluoro-5-(trifluoromethyl)benzamide], the IC50 in test [1] and in test [2] was under 1000 nM in each case.

As to `Nc1nn2c3c(cc(NC(=O)c4cc(F)cc(C(F)(F)F)c4)c(Oc4cc(F)ccc4Cl)c13)CN(C1CC1)C2=O` [Example 71, N-(2-Amino-3-(2-chloro-5-fluorophenoxy)-7-cyclopropyl-8-oxo-7,8-dihydro-6H-pyrazolo[4,5,1-ij]quinazolin-4-yl)-3-fluoro-5-(trifluoromethyl)benzamide], the IC50 in test [1] and in test [2] was under 1000 nM throughout.

For the compound `Nc1n[nH]c2c(-c3cccnc3)cc(NC(=O)c3cc(F)cc(C(F)(F)F)c3)c(Oc3cc(F)ccc3Cl)c12` [Example 16, N-(3-Amino-4-(2-chloro-5-fluorophenoxy)-7-(pyridin-3-yl)-1H-indazol-5-yl)-3-fluoro-5-(trifluoromethyl)benzamide], the values for the IC50 in test [1] and in test [2] were under 1000 nM and 1000 to 5000 nM, respectively.

For the compound `Nc1n[nH]c2ccc(NC(=O)c3cc(F)cc(C(F)(F)F)c3)c(Oc3cncc(Cl)c3)c12` [Example 3, N-(3-Amino-4-((5-chloropyridin-3-yl)oxy)-1H-indazol-5-yl)-3-fluoro-5-(trifluoromethyl)benzamide], the IC50 in test [1] was under 1000 nM; in test [2], at least 10000 nM.

As to `Cn1nc(N)c2c(Oc3cc(F)ccc3Cl)c(NC(=O)c3cc(F)cc(C(F)(F)F)c3)cc(/C=C\C#N)c21` [Example 58, (Z)—N-(3-amino-4-(2-chloro-5-fluorophenoxy)-7-(2-cyanovinyl)-1-methyl-1H-indazol-5-yl)-3-fluoro-5-(trifluoromethyl)benzamide], the IC50 in test [1] and in test [2] was under 1000 nM in each case.
